Assays:
Assay type in all cases: functional
SNB-75 = test: Antitumor activity against human SNB75 cells
[1] = Antitumor activity against human MCF7/ADR cells; details: NCI/ADR-RES
[2] = Antitumor activity against human […] cells
KM12 = test: Antitumor activity against human KM12 cells
SK-MEL-28 = test: Antitumor activity against human SK-MEL-28 cells
HT-29 = test: Antitumor activity against human HT-29 cells
PC-3 = test: Antitumor activity against human PC3 cells
RXF 393 = test: Antitumor activity against human RXF393 cells
T47D = test: Antitumor activity against human T47D cells
HCT-15 = test: Antitumor activity against human HCT15 cells
SNB-19 = test: Antitumor activity against human SNB19 cells
MDA-MB-231 = test: Antitumor activity against human MDA-MB-231 cells
NCI-H522 = test: Antitumor activity against human NCI-H522 cells
HCT-116 = test: Antitumor activity against human HCT116 cells
BT-549 = test: Antitumor activity against human BT549 cells
786-0 = test: Antitumor activity against human 786-0 cells
NCI-H460 = test: Antitumor activity against human NCI-H460 cells
K562 = test: Antitumor activity against human K562 cells
UO-31 = test: Antitumor activity against human UO31 cells
CCRF-CEM = test: Antitumor activity against human CCRF-CEM cells
HL-60(TB) = test: Antitumor activity against human HL-60(TB) cells
MOLT-4 = test: Antitumor activity against human MOLT4 cells
A498 = test: Antitumor activity against human A498 cells
UACC-62 = test: Antitumor activity against human UACC62 cells
NCI-H226 = test: Antitumor activity against human NCI-H226 cells
MCF7 = test: Antitumor activity against human MCF7 cells
MDA-N = test: Antitumor activity against human MDA-N cells
ACHN = test: Antitumor activity against human ACHN cells
SF-295 = test: Antitumor activity against human SF295 cells
U-251 = test: Antitumor activity against human U251 cells
[3] = read-out: pLC50 (the source's name) (converted)

C#C[C@@H](O)/C=C/CCCCCCCCC/C=C\CCCCCC
GI50 (SNB-75): 12.3 nM
CC50 (SNB-75; [3]): 107 nM
TGI (SNB-75; read-out: pTGI (converted)): 43.6 nM
GI50 [1]: 38 nM
CC50 [1, 3]: 138 nM
TGI ([1]; read-out: pTGI (converted)): 72.4 nM
GI50 [2]: 6.76 nM
CC50 [2, 3]: 129 nM
TGI ([2]; read-out: pTGI (converted)): 18.6 nM
GI50 (KM12): 37.1 nM
CC50 (KM12; [3]): 132 nM
TGI (KM12; read-out: pTGI): 70.8 nM
GI50 (SK-MEL-28): 41.7 nM
CC50 (SK-MEL-28; [3]): 138 nM
TGI (SK-MEL-28; read-out: pTGI (converted)): 75.9 nM
GI50 (HT-29): 30.9 nM
CC50 (HT-29; [3]): 138 nM
TGI (HT-29; read-out: pTGI (converted)): 66.1 nM
GI50 (PC-3): 39.8 nM
CC50 (PC-3; [3]): 138 nM
TGI (PC-3; read-out: pTGI (converted)): 74.1 nM
GI50 (RXF 393): 33.1 nM
CC50 (RXF 393; [3]): 132 nM
TGI (RXF 393; read-out: pTGI (converted)): 66.1 nM
GI50 (T47D): 6.31 nM
CC50 (T47D; [3]): 115 nM
TGI (T47D; read-out: pTGI (converted)): 42.7 nM
GI50 (HCT-15): 36.3 nM
CC50 (HCT-15; [3]): 132 nM
TGI (HCT-15; read-out: pTGI (converted)): 69.2 nM
GI50 (SNB-19): 52.5 nM
CC50 (SNB-19; [3]): 151 nM
TGI (SNB-19; read-out: pTGI (converted)): 89.1 nM
GI50 (MDA-MB-231): 47.9 nM
CC50 (MDA-MB-231; [3]): 145 nM
TGI (MDA-MB-231; read-out: pTGI (converted)): 83.2 nM
GI50 (NCI-H522): 0.115 nM
LC50 (NCI-H522): 1.18 nM
TGI (NCI-H522; read-out: pTGI (converted)): 0.436 nM
GI50 (HCT-116): 25.1 nM
CC50 (HCT-116; [3]): 117 nM
TGI (HCT-116; read-out: pTGI (converted)): 55 nM
GI50 (BT-549): 38.9 nM
CC50 (BT-549; [3]): 135 nM
TGI (BT-549; read-out: pTGI (converted)): 72.4 nM
GI50 (786-0): 42.7 nM
CC50 (786-0; [3]): 138 nM
TGI (786-0; read-out: pTGI (converted)): 77.6 nM
GI50 (NCI-H460): 42.7 nM
CC50 (NCI-H460; [3]): 151 nM
TGI (NCI-H460; read-out: pTGI (converted)): 79.4 nM
GI50 (K562): 30.9 nM
CC50 (K562; [3]): 155 nM
TGI (K562; read-out: pTGI (converted)): 69.2 nM
GI50 (UO-31): 52.5 nM
CC50 (UO-31; [3]): 151 nM
TGI (UO-31; read-out: pTGI (converted)): 89.1 nM
GI50 (CCRF-CEM): 0.631 nM
CC50 (CCRF-CEM; [3]): 61.7 nM
TGI (CCRF-CEM; read-out: pTGI (converted)): 1.55 nM
GI50 (HL-60(TB)): 10.2 nM
CC50 (HL-60(TB); [3]): 129 nM
TGI (HL-60(TB); read-out: pTGI (converted)): 36.3 nM
GI50 (MOLT-4): 6.46 nM
CC50 (MOLT-4; [3]): 126 nM
TGI (MOLT-4; read-out: pTGI (converted)): 26.9 nM
GI50 (A498): 58.9 nM
CC50 (A498; [3]): 155 nM
TGI (A498; read-out: pTGI (converted)): 95.5 nM
GI50 (UACC-62): 38.9 nM
CC50 (UACC-62; [3]): 135 nM
TGI (UACC-62; read-out: pTGI (converted)): 72.4 nM
GI50 (NCI-H226): 30.2 nM
CC50 (NCI-H226; [3]): 129 nM
TGI (NCI-H226; read-out: pTGI (converted)): 61.7 nM
GI50 (MCF7): 13.8 nM
CC50 (MCF7; [3]): 123 nM
TGI (MCF7; read-out: pTGI (converted)): 47.9 nM
GI50 (MDA-N): 25.1 nM
CC50 (MDA-N; [3]): 115 nM
TGI (MDA-N; read-out: pTGI (converted)): 53.7 nM
GI50 (ACHN): 45.7 nM
CC50 (ACHN; [3]): 141 nM
TGI (ACHN; read-out: pTGI (converted)): 79.4 nM
GI50 (SF-295): 44.7 nM
CC50 (SF-295; [3]): 145 nM
TGI (SF-295; read-out: pTGI (converted)): 79.4 nM
GI50 (U-251): 40.7 nM

From ChEMBL document CHEMBL1150095, “Antitumor activity and stereochemistry of acetylenic alcohols from the sponge Cribrochalina vasculum” (1995)
